Data: the supplement of paper PMC10307832

Assays:
Assay in all cases: relative viability (nuclei count vs DMSO), 5 days (fraction); higher = more cells survive
[1] = test system: HCC-78
How it was run: (§1)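 Relative viability is defined as nuclei in treated wells over nuclei in vehicle wells. Duplicate plates were run and medians reported. Lung cancer cell lines in 1536-well plates were dosed by pin tool one day after seeding, with one drug or with a fixed anchor-drug dose plus five library-drug doses (not always all listed) in √10 steps, and nuclei were counted after 5 days.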

[2] = test system: CAL-12T
How it was run: as §1

[3] = test system: HOP-62
How it was run: as §1

[4] = test system: NCI-H1944
How it was run: as §1

[5] = test system: NCI-H2347
How it was run: as §1

[6] = test system: SK-LU-1
How it was run: as §1

[7] = test system: 201T
How it was run: as §1

[8] = test system: BEN
How it was run: as §1

[9] = test system: NCI-H1915
How it was run: as §1

[10] = test system: NCI-H838
How it was run: as §1

[11] = test system: NCI-H1355
How it was run: as §1

[12] = test system: NCI-H650
How it was run: as §1

[13] = test system: NCI-H322M
How it was run: as §1

[14] = test system: NCI-H1793
How it was run: as §1

[15] = test system: NCI-H441
How it was run: as §1

[16] = test system: LCLC-97TM1
How it was run: as §1

[17] = test system: LOU-NH91
How it was run: as §1

[18] = test system: NCI-H2126
How it was run: as §1

[19] = test system: NCI-H3122
How it was run: as §1

[20] = test system: NCI-H1395
How it was run: as §1

[21] = test system: NCI-H1651
How it was run: as §1

[22] = test system: SW 1573
How it was run: as §1

CN1CCN(CCOc2cc(OC3CCOCC3)c3c(Nc4c(Cl)ccc5c4OCO5)ncnc3c2)CC1 [Saracatinib] + O=C(c1cc(Cc2n[nH]c(=O)c3ccccc23)ccc1F)N1CCN(C(=O)C2CC2)CC1 [Olaparib] (partner 8 µM)
relative viability ([1]; first compound 0.02 µM): 0.891
relative viability ([1]; first compound 0.6325 µM): 0.99
relative viability ([1]; first compound 2 µM): 0.673
relative viability ([2]; first compound 0.02 µM): 0.787
relative viability ([2]; first compound 0.2 µM): 0.682
relative viability ([2]; first compound 0.6325 µM): 0.825
relative viability ([2]; first compound 2 µM): 0.701
relative viability ([3]; first compound 0.02 µM): 0.38
relative viability ([3]; first compound 0.2 µM): 0.417
relative viability ([3]; first compound 0.6325 µM): 0.204
relative viability ([3]; first compound 2 µM): 0.39
relative viability ([4]; first compound 0.02 µM): 0.406
relative viability ([4]; first compound 0.2 µM): 0.344
relative viability ([4]; first compound 0.6325 µM): 0.44
relative viability ([4]; first compound 2 µM): 0.358
relative viability ([5]; first compound 0.02 µM): 0.571
relative viability ([5]; first compound 0.2 µM): 0.428
relative viability ([5]; first compound 0.6325 µM): 0.622
relative viability ([5]; first compound 2 µM): 0.551
relative viability ([6]; first compound 0.02 µM): 0.416
relative viability ([6]; first compound 0.2 µM): 0.359
relative viability ([6]; first compound 0.6325 µM): 0.33
relative viability ([6]; first compound 2 µM): 0.28
relative viability ([7]; first compound 0.02 µM): 0.913
relative viability ([7]; first compound 0.2 µM): 0.595
relative viability ([7]; first compound 0.6325 µM): 0.775
relative viability ([7]; first compound 2 µM): 0.665
relative viability ([8]; first compound 0.02 µM): 1.15
relative viability ([8]; first compound 0.2 µM): 0.922
relative viability ([8]; first compound 0.6325 µM): 1.15
relative viability ([8]; first compound 2 µM): 0.794
relative viability ([9]; first compound 0.02 µM): 0.256
relative viability ([9]; first compound 0.2 µM): 0.244
relative viability ([9]; first compound 0.6325 µM): 0.281
relative viability ([9]; first compound 2 µM): 0.225
relative viability ([10]; first compound 0.02 µM): 0.776
relative viability ([10]; first compound 0.2 µM): 0.643
relative viability ([10]; first compound 0.6325 µM): 0.656
relative viability ([10]; first compound 2 µM): 0.505
relative viability ([11]; first compound 0.02 µM): 0.796
relative viability ([11]; first compound 0.2 µM): 0.692
relative viability ([11]; first compound 0.6325 µM): 0.817
relative viability ([11]; first compound 2 µM): 0.706
relative viability ([12]; first compound 0.02 µM): 0.353
relative viability ([12]; first compound 0.2 µM): 0.442
relative viability ([12]; first compound 0.6325 µM): 0.429
relative viability ([12]; first compound 2 µM): 0.432
relative viability ([13]; first compound 0.02 µM): 0.769
relative viability ([13]; first compound 0.2 µM): 0.492
relative viability ([13]; first compound 0.6325 µM): 0.636
relative viability ([13]; first compound 2 µM): 0.402
relative viability ([14]; first compound 0.02 µM): 0.872
relative viability ([14]; first compound 0.2 µM): 0.498
relative viability ([14]; first compound 0.6325 µM): 0.777
relative viability ([14]; first compound 2 µM): 0.564
relative viability ([15]; first compound 0.02 µM): 0.57
relative viability ([15]; first compound 0.2 µM): 0.536
relative viability ([15]; first compound 0.6325 µM): 0.634
relative viability ([15]; first compound 2 µM): 0.532
relative viability ([16]; first compound 0.02 µM): 0.494
relative viability ([16]; first compound 0.2 µM): 0.291
relative viability ([16]; first compound 0.6325 µM): 0.567
relative viability ([16]; first compound 2 µM): 0.32
relative viability ([17]; first compound 0.02 µM): 0.862
relative viability ([17]; first compound 0.2 µM): 0.711
relative viability ([17]; first compound 0.6325 µM): 0.73
relative viability ([17]; first compound 2 µM): 0.613
relative viability ([18]; first compound 0.02 µM): 0.886
relative viability ([18]; first compound 0.2 µM): 0.924
relative viability ([18]; first compound 0.6325 µM): 0.923
relative viability ([18]; first compound 2 µM): 0.763
relative viability ([19]; first compound 0.02 µM): 0.62
relative viability ([19]; first compound 0.2 µM): 0.485
relative viability ([19]; first compound 0.6325 µM): 0.682
relative viability ([19]; first compound 2 µM): 0.528
relative viability ([20]; first compound 0.02 µM): 0.497
relative viability ([20]; first compound 0.2 µM): 0.488
relative viability ([20]; first compound 0.6325 µM): 0.409
relative viability ([20]; first compound 2 µM): 0.436
relative viability ([21]; first compound 0.02 µM): 0.191
relative viability ([21]; first compound 0.2 µM): 0.16
relative viability ([21]; first compound 0.6325 µM): 0.162
relative viability ([21]; first compound 2 µM): 0.165
relative viability ([22]; first compound 0.02 µM): 0.502
relative viability ([22]; first compound 0.2 µM): 0.382
relative viability ([22]; first compound 0.6325 µM): 0.448
relative viability ([22]; first compound 2 µM): 0.384
